The text below walks through data of PubChem BioAssay AID248 (DTP/NCI, 2004).

In the experiment the test system is L1210 leukemia ip in BDF1 mice, survival T/C. In words: NCI In Vivo Anticancer Drug Screen. Data for tumor model L1210 Leukemia (intraperitoneal) in B6D2F1 (BDF1) mice. The conditions noted are these: endpoint: mean survival time, higher = longer survival. Put shortly: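 Antitumor effect is assessed in tumor-bearing animals. Survival in the compound arm is compared with a vehicle-dosed control arm and expressed as their quotient.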

Setting [1] is: dose: 100.0 mg/kg/injection, schedule: Q01DX001 (ip), vehicle: saline.
Setting [2] is: dose: 200.0 mg/kg/injection, schedule: Q01DX001 (ip), vehicle: saline.
[3] abbreviates: dose: 400.0 mg/kg/injection, schedule: Q01DX001 (ip), vehicle: saline.
Where [4] appears, read: dose: 75.0 mg/kg/injection, schedule: Q01DX001 (ip), vehicle: saline.
Setting [5] is: dose: 150.0 mg/kg/injection, schedule: Q01DX001 (ip), vehicle: saline.
Where [6] appears, read: dose: 100.0 mg/kg/injection, schedule: Q01DX009 (ip), vehicle: Klucel (hydroxypropylcellulose) (HPC).
[7] abbreviates: dose: 200.0 mg/kg/injection, schedule: Q01DX009 (ip), vehicle: Klucel (hydroxypropylcellulose) (HPC).
[8] abbreviates: dose: 100.0 mg/kg/injection, schedule: Q04DX003 (ip), vehicle: Klucel (hydroxypropylcellulose) (HPC).
Setting [9] is: dose: 200.0 mg/kg/injection, schedule: Q04DX003 (ip), vehicle: Klucel (hydroxypropylcellulose) (HPC).
The mark [10] stands for this setting: dose: 400.0 mg/kg/injection, schedule: Q04DX003 (ip), vehicle: Klucel (hydroxypropylcellulose) (HPC).
The mark [11] stands for this setting: dose: 25.0 mg/kg/injection, schedule: Q04DX002 (ip), vehicle: saline with Tween-80.
Where [12] appears, read: dose: 100.0 mg/kg/injection, schedule: Q01DX001 (ip), vehicle: carboxymethylcellulose (CMC).
The mark [13] stands for this setting: dose: 100.0 mg/kg/injection, schedule: Q04DX003 (ip), vehicle: saline.
Setting [14] is: dose: 200.0 mg/kg/injection, schedule: Q04DX003 (ip), vehicle: saline.
Where [15] appears, read: dose: 400.0 mg/kg/injection, schedule: Q04DX003 (ip), vehicle: saline.

Inconclusive results and toxic doses are left out. Square brackets hold non-standard residues; d marks the D form. Peptide text beside a SMILES is read from it. * marks the point of attachment. ξ: configuration not given here. Cbz = O=C(OCc1ccccc1)*; ξV = CC(C)C(N)C(=O)O; OBn = c1ccc(CO*)cc1

Regarding `Cc1cnc(C#N)c(C#N)n1`, the T/C runs as follows: (dose: 12.5 mg/kg/injection, schedule: Q04DX002 (ip), vehicle: Klucel (hydroxypropylcellulose) (HPC)) 100 % of control; (dose: 25.0 mg/kg/injection, schedule: Q04DX002 (ip), vehicle: Klucel (hydroxypropylcellulose) (HPC)) 96 % of control; (dose: 50.0 mg/kg/injection, schedule: Q04DX002 (ip), vehicle: Klucel (hydroxypropylcellulose) (HPC)) 96 % of control.

As for `O=P1(Nc2ccc(Cl)cc2)OCC2(CO1)COP(=O)(Nc1ccc(Cl)cc1)OC2` (stereo unspecified), the T/C runs as follows: (dose: 50.0 mg/kg/injection, schedule: Q01DX001 (ip), vehicle: saline) 98 % of control; under setting [1], 93 % of control; under setting [2], 101 % of control; under setting [3], 117 % of control.

As for `OCC1OC(n2c(N3CCOCC3)nc3ccccc32)C(O)C1O` (stereo unspecified), the T/C under setting [1] was 115 % of control, the T/C under setting [2] was 97 % of control and the T/C under setting [3] was 96 % of control.

Turning to `Cc1csc[n+]1C`, the T/C under setting [4] was 98 % of control and the T/C under setting [5] is 102 % of control.

As to `COc1ccc(C(=O)Nc2ccccc2)cc1NC(=O)NC(C)=O`, the T/C under setting [6] was 97 % of control; the T/C under setting [7] was 106 % of control; the T/C (dose: 400.0 mg/kg/injection, schedule: Q01DX009 (ip), vehicle: Klucel (hydroxypropylcellulose) (HPC)) is 100 % of control.

For the compound `O=CNC(CSC(=O)c1ccccc1)C(=O)O` (stereo unspecified), the T/C was 101 % of control under setting [6]; 97 % of control under setting [8]; 101 % of control under setting [7]; 97 % of control under setting [9]; 94 % of control under setting [10].

For the compound `O=C(Nc1ccccc1)OCCc1c2ccccc2[n+]([O-])c2ccccc12`, the T/C (dose: 100.0 mg/kg/injection, schedule: Q04DX003 (ip), vehicle: saline with Tween-80) was 91 % of control; the T/C (dose: 200.0 mg/kg/injection, schedule: Q04DX003 (ip), vehicle: saline with Tween-80) is 91 % of control; the T/C (dose: 400.0 mg/kg/injection, schedule: Q04DX003 (ip), vehicle: saline with Tween-80) is 102 % of control.

Regarding `N#CC1c2cc(OC(=O)c3ccccc3)ccc2C=CN1C(=O)c1ccccc1` (stereo unspecified), the T/C runs as follows: (dose: 100.0 mg/kg/injection, schedule: Q04DX003 (ip), vehicle: gum acacia) 89 % of control; (dose: 200.0 mg/kg/injection, schedule: Q04DX003 (ip), vehicle: gum acacia) 89 % of control.

Take `C=C(C)C1(CC)C(=O)NC(=O)N(C)C1=O` (stereo unspecified): the T/C by setting is: (dose: 75.0 mg/kg/injection, schedule: Q01DX001 (ip), vehicle: carboxymethylcellulose (CMC)) 102 % of control; under setting [4], 97 % of control; (dose: 150.0 mg/kg/injection, schedule: Q01DX001 (ip), vehicle: carboxymethylcellulose (CMC)) 105 % of control; under setting [5], 102 % of control; (dose: 300.0 mg/kg/injection, schedule: Q01DX001 (ip), vehicle: carboxymethylcellulose (CMC)) 103 % of control; (dose: 300.0 mg/kg/injection, schedule: Q01DX001 (ip), vehicle: saline) 108 % of control.

As for `COc1cc2c(cc1OC)N=Cc1cccn1C2`, the T/C by setting is: under setting [11], 94 % of control; (dose: 50.0 mg/kg/injection, schedule: Q04DX002 (ip), vehicle: saline with Tween-80) 97 % of control; (dose: 100.0 mg/kg/injection, schedule: Q04DX002 (ip), vehicle: saline with Tween-80) 90 % of control.

Regarding `CC(C)C(NC(=O)CNC(=O)CNC(=O)OCc1ccccc1)C(=O)OCc1ccccc1` (stereo not drawn) (Cbz-Gly-Gly-[ξV]-OBn), the T/C under setting [8] is 95 % of control, the T/C under setting [9] was 96 % of control and the T/C under setting [10] was 96 % of control.

Turning to `C/C(=N\OC(=O)Nc1ccccc1)c1ccccc1`, the T/C under setting [12] is 98 % of control and the T/C (dose: 400.0 mg/kg/injection, schedule: Q01DX001 (ip), vehicle: carboxymethylcellulose (CMC)) is 95 % of control.

In the case of `O=S(=O)(Nc1ccccc1)c1ccccc1C#Cc1ccccc1`, the T/C was 105 % of control (dose: 100.0 mg/kg/injection, schedule: Q01DX001 (ip), vehicle: steriod suspending solution); 100 % of control (dose: 200.0 mg/kg/injection, schedule: Q01DX001 (ip), vehicle: steriod suspending solution); 97 % of control (dose: 400.0 mg/kg/injection, schedule: Q01DX001 (ip), vehicle: steriod suspending solution).

`O=C(c1ccccc1)c1cc(Cl)ccc1N1C(=O)C=CC1=O`: under setting [11], the T/C is 90 % of control.

For the compound `Cc1ccc(S(=O)(=O)O/N=C(/C#N)c2ccccc2)cc1`, the T/C is 111 % of control (dose: 100.0 mg/kg/injection, schedule: Q04DX002 (ip), vehicle: Klucel (hydroxypropylcellulose) (HPC)); 97 % of control (dose: 200.0 mg/kg/injection, schedule: Q04DX002 (ip), vehicle: Klucel (hydroxypropylcellulose) (HPC)); 101 % of control (dose: 400.0 mg/kg/injection, schedule: Q04DX002 (ip), vehicle: Klucel (hydroxypropylcellulose) (HPC)).

As for `O=S(=O)(O)CCN(CCO)CCO`, the T/C (dose: 100.0 mg/kg/injection, schedule: Q01DX009 (ip), vehicle: saline) was 98 % of control; the T/C under setting [13] was 97 % of control; the T/C (dose: 200.0 mg/kg/injection, schedule: Q01DX009 (ip), vehicle: saline) is 101 % of control; the T/C under setting [14] was 101 % of control; the T/C (dose: 400.0 mg/kg/injection, schedule: Q01DX009 (ip), vehicle: saline) was 109 % of control; the T/C under setting [15] was 94 % of control.

For the compound `CC(C)(NCCNC(C)(C)[P+](=O)O)[P+](=O)O`, the T/C was 96 % of control under setting [8], 93 % of control under setting [9] and 93 % of control under setting [10].

In the case of `O=C(N/C=C/NC(=O)OC(=O)C(Cl)(Cl)Cl)OC(=O)C(Cl)(Cl)Cl`, the T/C under setting [13] was 92 % of control, the T/C under setting [14] was 88 % of control and the T/C under setting [15] was 93 % of control.

As for `O=C(O)c1ccccc1Cc1cccs1`, the T/C is 98 % of control (dose: 100.0 mg/kg/injection, schedule: Q01DX001 (ip), vehicle: saline with Tween-80); 95 % of control (dose: 200.0 mg/kg/injection, schedule: Q01DX001 (ip), vehicle: saline with Tween-80); 92 % of control (dose: 400.0 mg/kg/injection, schedule: Q01DX001 (ip), vehicle: saline with Tween-80).

As for `Nc1ncnc2nncnc12`, the T/C by setting is: (dose: 50.0 mg/kg/injection, schedule: Q01DX001 (ip), vehicle: carboxymethylcellulose (CMC)) 93 % of control; under setting [12], 93 % of control.

Turning to `Nc1nc(=S)c2ncn(CN3CCCCC3)c2[nH]1`, the T/C (dose: 1.3 mg/kg/injection, schedule: Q01DX Z (ip), vehicle: carboxymethylcellulose (CMC)) is 112 % of control; the T/C (dose: 2.0 mg/kg/injection, schedule: Q01DX Z (ip), vehicle: carboxymethylcellulose (CMC)) was 123 % of control; the T/C (dose: 3.0 mg/kg/injection, schedule: Q01DX Z (ip), vehicle: carboxymethylcellulose (CMC)) is 154 % of control; the T/C (dose: 3.0 mg/kg/injection, schedule: Q01DX Z (ip), vehicle: saline) was 155 % of control; the T/C (dose: 4.5 mg/kg/injection, schedule: Q01DX Z (ip), vehicle: carboxymethylcellulose (CMC)) is 151 % of control; the T/C (dose: 4.5 mg/kg/injection, schedule: Q01DX Z (ip), vehicle: saline) is 166 % of control. Besides, the T/C reads like this: (dose: 7.0 mg/kg/injection, schedule: Q01DX Z (ip), vehicle: saline) 156 % of control; (dose: 10.0 mg/kg/injection, schedule: Q01DX Z (ip), vehicle: saline) 156 % of control.
